For the assay, the target named is T1, Amylin 3(a) receptor (human calcitonin receptor (CTa) with RAMP-3) (Homo sapiens, UniProt O60896+P30988).
T1 construct: expressed in transfected cells; host or cells: BHK570 (baby hamster kidney) cells, stably transfected, with CRE-luciferase reporter
Put plainly: Amylin luciferase assay (CRE-luciferase reporter in BHK Amylin 3(a)//CRE-luc cells). Format: cell-based. The essentials: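 BHK570 cells stably expressing human calcitonin receptor (CTa), RAMP-3 and a CRE-luciferase reporter, about 20.000 cells/well, were exposed to standard or sample for 4 h at 37° C in phenol-red-free DMEM with 10% FBS and 10 mM Hepes pH 7,4. Luminescence was read after 30 min with LucLite at room temperature.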
Background: Reporter assays use an easily measured gene product as a stand-in for the process of interest.

[1] abbreviates: BHK570 cells with human calcitonin receptor (CTa), RAMP-3 and CRE-luciferase reporter, 4 hours incubation, read-out: Potency luciferase assay.

Like-named read-outs stand apart in the source and are kept apart here. Starred links: 1 amine or outer side, 2 acyl side, 3 side chain; linkers in the order of their positions; H or OH if unused. Positions of bridges follow the written chain, without caps; N, C: chain ends. Residues, ends and D or L forms follow the SMILES beside them. Groups on a side chain read outwards from the residue. *: point of attachment. X1 = O=C(CCCCCCCCCCCCCCCc1nnn[nH]1)NS(=O)(=O)CCCC(=O)*; C20 diacid = O=C(O)CCCCCCCCCCCCCCCCCCC(=O)*; C18 diacid = O=C(O)CCCCCCCCCCCCCCCCC(=O)*; γGlu = O=C(O)[C@H](CCC(=O)[*:2])N[*:1]

T1 sequence (O60896 24-148): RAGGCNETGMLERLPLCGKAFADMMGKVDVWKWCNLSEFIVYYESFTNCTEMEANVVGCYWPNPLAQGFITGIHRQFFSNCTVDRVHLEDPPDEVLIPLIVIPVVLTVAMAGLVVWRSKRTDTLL
T1 sequence (P30988 25-474): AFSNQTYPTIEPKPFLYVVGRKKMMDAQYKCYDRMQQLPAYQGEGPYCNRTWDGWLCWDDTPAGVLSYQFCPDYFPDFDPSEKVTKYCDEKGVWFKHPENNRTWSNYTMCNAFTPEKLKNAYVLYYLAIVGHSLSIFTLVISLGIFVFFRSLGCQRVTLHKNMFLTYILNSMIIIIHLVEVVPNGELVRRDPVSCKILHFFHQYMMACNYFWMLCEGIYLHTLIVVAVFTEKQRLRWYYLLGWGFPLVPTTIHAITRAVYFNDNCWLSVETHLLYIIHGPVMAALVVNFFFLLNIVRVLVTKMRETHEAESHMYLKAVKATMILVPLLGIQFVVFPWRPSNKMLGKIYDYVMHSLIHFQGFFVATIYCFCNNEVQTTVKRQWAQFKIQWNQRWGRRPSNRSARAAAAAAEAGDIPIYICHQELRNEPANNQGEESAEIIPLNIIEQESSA

On to `CC(C)C[C@H](NC(=O)[C@H](CC(N)=O)NC(=O)[C@H](CCC(N)=O)NC(=O)[C@H](CO)NC(=O)[C@H](CO)NC(=O)[C@H](CCCNC(=N)N)NC(=O)[C@@H](NC(=O)[C@H](CC(C)C)NC(=O)[C@H](Cc1ccccc1)NC(=O)[C@H](CC(N)=O)NC(=O)[C@H](C)NC(=O)[C@H](CC(C)C)NC(=O)[C@H](CCCNC(=N)N)NC(=O)[C@H](CCC(N)=O)NC(=O)[C@@H](NC(=O)[C@H](C)NC(=O)[C@@H]1CSSC[C@H](NC(=O)[C@H](CCC(=O)O)NC(=O)[C@H](CCC(=O)O)NC(=O)[C@H](CCC(=O)O)NC(=O)[C@H](CCC(=O)O)NC(=O)CCCCCCCCCCCCCCCCCCC(=O)O)C(=O)N[C@@H](CCC(N)=O)C(=O)N[C@@H]([C@@H](C)O)C(=O)N[C@@H](C)C(=O)N[C@@H]([C@@H](C)O)C(=O)N1)[C@@H](C)O)C(C)C)C(=O)NCC(=O)N1CCC[C@H]1C(=O)N[C@H](C(=O)N[C@@H](CC(C)C)C(=O)N1CCC[C@H]1C(=O)N1CCC[C@H]1C(=O)N[C@H](C(=O)N[C@@H](CC(N)=O)C(=O)N[C@H](C(=O)NCC(=O)N[C@@H](CO)C(=O)N[C@@H](CC(N)=O)C(=O)N[C@H](C(=O)N[C@@H](Cc1ccc(O)cc1)C(N)=O)[C@@H](C)O)C(C)C)[C@@H](C)O)C(C)C` [Example 37, N-alpha-(19-carboxynonadecanoyl)-Glu-Glu-Glu-[Glu1,Gln3,Arg18,Gln21,Leu23,Val26]-pramlintide (1-37)] ({C20 diacid}-EEEECQTATCATQRLANFLVRSSQNLGPVLPPTNVGSNTY-NH2; disulfide 5-10), for which the EC50 under setting [1] is 2 nM. As for `CC[C@H](C)[C@H](NC(=O)[C@@H]1CCCN1C(=O)CNC(=O)[C@H](Cc1ccccc1)NC(=O)[C@H](CC(N)=O)NC(=O)[C@H](CC(N)=O)NC(=O)[C@H](CO)NC(=O)[C@H](CO)NC(=O)[C@H](Cc1c[nH]cn1)NC(=O)[C@@H](NC(=O)[C@H](CC(C)C)NC(=O)[C@H](Cc1ccccc1)NC(=O)[C@H](CC(N)=O)NC(=O)[C@H](C)NC(=O)[C@H](CC(C)C)NC(=O)[C@H](CCCNC(=N)N)NC(=O)[C@H](CCC(N)=O)NC(=O)[C@@H](NC(=O)[C@H](C)NC(=O)[C@@H]1CSSC[C@H](NC(=O)[C@H](CCC(=O)O)NC(=O)[C@H](CCCNC(=N)N)NC(=O)[C@H](CCC(=O)O)NC(=O)[C@H](CCC(=O)O)NC(=O)CC[C@H](NC(=O)CCCCCCCCCCCCCCCCCCC(=O)O)C(=O)O)C(=O)N[C@@H](CC(N)=O)C(=O)N[C@@H]([C@@H](C)O)C(=O)N[C@@H](C)C(=O)N[C@@H]([C@@H](C)O)C(=O)N1)[C@@H](C)O)C(C)C)C(=O)N[C@@H](CC(C)C)C(=O)N1CCC[C@H]1C(=O)N1CCC[C@H]1C(=O)N[C@H](C(=O)N[C@@H](CC(N)=O)C(=O)N[C@H](C(=O)NCC(=O)N[C@@H](CO)C(=O)N[C@@H](CC(N)=O)C(=O)N[C@H](C(=O)N[C@@H](Cc1ccc(O)cc1)C(N)=O)[C@@H](C)O)C(C)C)[C@@H](C)O` [Example 38, N-alpha-[(S)-4-carboxy-4-(19-carboxynonadecanoylamino)butyryl]-Glu-Glu-Arg-[Glu1]-pramlintide (1-37)] ({C20 diacid-γGlu}-EERECNTATCATQRLANFLVHSSNNFGPILPPTNVGSNTY-NH2; disulfide 5-10; C-terminus assumed), under setting [1], the EC50 is 0.3 nM. In the case of `CC[C@H](C)[C@H](NC(=O)[C@@H]1CCCN1C(=O)CNC(=O)[C@H](Cc1ccccc1)NC(=O)[C@H](CC(N)=O)NC(=O)[C@H](CC(N)=O)NC(=O)[C@H](CO)NC(=O)[C@H](CO)NC(=O)[C@H](Cc1c[nH]cn1)NC(=O)[C@@H](NC(=O)[C@H](CC(C)C)NC(=O)[C@H](Cc1ccccc1)NC(=O)[C@H](CC(N)=O)NC(=O)[C@H](C)NC(=O)[C@H](CC(C)C)NC(=O)[C@H](CCCNC(=N)N)NC(=O)[C@H](CCC(N)=O)NC(=O)[C@@H](NC(=O)[C@H](C)NC(=O)[C@@H]1CSSC[C@H](NC(=O)[C@H](CCC(=O)O)NC(=O)[C@H](CCCNC(=N)N)NC(=O)[C@H](CCC(=O)O)NC(=O)[C@H](CCC(=O)O)NC(=O)CCCCCCCCCCCCCCCCC(=O)O)C(=O)N[C@@H](CC(N)=O)C(=O)N[C@@H]([C@@H](C)O)C(=O)N[C@@H](C)C(=O)N[C@@H]([C@@H](C)O)C(=O)N1)[C@@H](C)O)C(C)C)C(=O)N[C@@H](CC(C)C)C(=O)N1CCC[C@H]1C(=O)N1CCC[C@H]1C(=O)N[C@H](C(=O)N[C@@H](CC(N)=O)C(=O)N[C@H](C(=O)NCC(=O)N[C@@H](CO)C(=O)N[C@@H](CC(N)=O)C(=O)N[C@H](C(=O)N[C@@H](Cc1ccc(O)cc1)C(N)=O)[C@@H](C)O)C(C)C)[C@@H](C)O` [Example 41, N-alpha-(17-carboxyheptadecanoyl)-Glu-Glu-Arg-[Glu1]pramlintide (1-37)] ({C18 diacid}-EERECNTATCATQRLANFLVHSSNNFGPILPPTNVGSNTY-NH2; disulfide 5-10; C-terminus assumed), the EC50 under setting [1] turned out to be 0.06 nM. Turning to `CC[C@H](C)[C@H](NC(=O)[C@@H]1CCCN1C(=O)CNC(=O)[C@H](Cc1ccccc1)NC(=O)[C@H](CC(N)=O)NC(=O)[C@H](CC(N)=O)NC(=O)[C@H](CO)NC(=O)[C@H](CO)NC(=O)[C@H](Cc1c[nH]cn1)NC(=O)[C@@H](NC(=O)[C@H](CC(C)C)NC(=O)[C@H](Cc1ccccc1)NC(=O)[C@H](CC(N)=O)NC(=O)[C@H](C)NC(=O)[C@H](CC(C)C)NC(=O)[C@H](CCCNC(=N)N)NC(=O)[C@H](CCC(N)=O)NC(=O)[C@@H](NC(=O)[C@H](C)NC(=O)[C@@H]1CSSC[C@H](N)C(=O)N[C@@H](CCCCNC(=O)CC[C@H](NC(=O)CCCS(=O)(=O)NC(=O)CCCCCCCCCCCCCCCc2nnn[nH]2)C(=O)O)C(=O)N[C@@H]([C@@H](C)O)C(=O)N[C@@H](C)C(=O)N[C@@H]([C@@H](C)O)C(=O)N1)[C@@H](C)O)C(C)C)C(=O)N[C@@H](CC(C)C)C(=O)N1CCC[C@H]1C(=O)N1CCC[C@H]1C(=O)N[C@H](C(=O)N[C@@H](CC(N)=O)C(=O)N[C@H](C(=O)NCC(=O)N[C@@H](CO)C(=O)N[C@@H](CC(N)=O)C(=O)N[C@H](C(=O)N[C@@H](Cc1ccc(O)cc1)C(N)=O)[C@@H](C)O)C(C)C)[C@@H](C)O` [Example 42, N-epsilon3-{4-carboxy-4-[4-(16-1H-tetrazol-5-ylhexadecanoylsulfamoyl)butyrylamino]butyryl}-[Lys3]-pramlintide (2-37)] (H-CK([γGlu-X1])TATCATQRLANFLVHSSNNFGPILPPTNVGSNTY-NH2; disulfide 1-6; N-terminus and C-terminus assumed), the EC50 is 0.04 nM. `CC[C@H](C)[C@H](NC(=O)[C@@H]1CCCN1C(=O)CNC(=O)[C@H](Cc1ccccc1)NC(=O)[C@H](CC(N)=O)NC(=O)[C@H](CC(N)=O)NC(=O)[C@H](CO)NC(=O)[C@H](CO)NC(=O)[C@H](Cc1c[nH]cn1)NC(=O)[C@@H](NC(=O)[C@H](CC(C)C)NC(=O)[C@H](Cc1ccccc1)NC(=O)[C@H](CC(N)=O)NC(=O)[C@H](C)NC(=O)[C@H](CC(C)C)NC(=O)[C@H](CCCNC(=N)N)NC(=O)[C@H](CCC(N)=O)NC(=O)[C@@H](NC(=O)[C@H](C)NC(=O)[C@@H]1CSSC[C@H](NC(=O)CC[C@H](NC(=O)CCCCCCCCCCCCCCCCCCC(=O)O)C(=O)O)C(=O)N[C@@H](CC(N)=O)C(=O)N[C@@H]([C@@H](C)O)C(=O)N[C@@H](C)C(=O)N[C@@H]([C@@H](C)O)C(=O)N1)[C@@H](C)O)C(C)C)C(=O)N[C@@H](CC(C)C)C(=O)N1CCC[C@H]1C(=O)N1CCC[C@H]1C(=O)N[C@H](C(=O)N[C@@H](CC(N)=O)C(=O)N[C@H](C(=O)NCC(=O)N[C@@H](CO)C(=O)N[C@@H](CC(N)=O)C(=O)N[C@H](C(=O)N[C@@H](Cc1ccc(O)cc1)C(N)=O)[C@@H](C)O)C(C)C)[C@@H](C)O` [Example 43, N-alpha-[(S)-4-carboxy-4-(19-carboxynonadecanoylamino)butyryl]-pramlintide (2-37)] ({C20 diacid-γGlu}-CNTATCATQRLANFLVHSSNNFGPILPPTNVGSNTY-NH2; disulfide 1-6; C-terminus assumed): the EC50 under setting [1] was determined as 0.1 nM. Still for that read-out and setting: as for `CC[C@H](C)[C@H](NC(=O)[C@@H]1CCCN1C(=O)CNC(=O)[C@H](Cc1ccccc1)NC(=O)[C@H](CC(N)=O)NC(=O)[C@H](CC(N)=O)NC(=O)[C@H](CO)NC(=O)[C@H](CO)NC(=O)[C@H](Cc1c[nH]cn1)NC(=O)[C@@H](NC(=O)[C@H](CC(C)C)NC(=O)[C@H](Cc1ccccc1)NC(=O)[C@H](CC(N)=O)NC(=O)[C@H](C)NC(=O)[C@H](CC(C)C)NC(=O)[C@H](CCCNC(=N)N)NC(=O)[C@H](CCC(N)=O)NC(=O)[C@@H](NC(=O)[C@H](C)NC(=O)[C@@H]1CSSC[C@H](NC(=O)[C@H](CCCNC(=N)N)NC(=O)CC[C@H](NC(=O)CCCCCCCCCCCCCCCCCCC(=O)O)C(=O)O)C(=O)N[C@@H](CC(N)=O)C(=O)N[C@@H]([C@@H](C)O)C(=O)N[C@@H](C)C(=O)N[C@@H]([C@@H](C)O)C(=O)N1)[C@@H](C)O)C(C)C)C(=O)N[C@@H](CC(C)C)C(=O)N1CCC[C@H]1C(=O)N1CCC[C@H]1C(=O)N[C@H](C(=O)N[C@@H](CC(N)=O)C(=O)N[C@H](C(=O)NCC(=O)N[C@@H](CO)C(=O)N[C@@H](CC(N)=O)C(=O)N[C@H](C(=O)N[C@@H](Cc1ccc(O)cc1)C(N)=O)[C@@H](C)O)C(C)C)[C@@H](C)O` [Example 45, N-alpha-[(S)-4-carboxy-4-(19-carboxynonadecanoylamino)butyryl]-[Arg1]-pramlintide (1-37)] ({C20 diacid-γGlu}-RCNTATCATQRLANFLVHSSNNFGPILPPTNVGSNTY-NH2; disulfide 2-7; C-terminus assumed), the figure is 0.04 nM.

These data come from patent publication US20100222269A1, “IMPROVED DERIVATIVES OF AMYLIN” (priority 2007, published 2010).
